The compounds below were run against b-Raf (V600E) (Homo sapiens (Human), UniProt P15056, V600E). Details: read-out: b-Raf IC-50; AlphaScreen, 60 min pre-incubation, 3 hours reaction.
b-Raf (V600E), sequence (P15056 whole entry V600E): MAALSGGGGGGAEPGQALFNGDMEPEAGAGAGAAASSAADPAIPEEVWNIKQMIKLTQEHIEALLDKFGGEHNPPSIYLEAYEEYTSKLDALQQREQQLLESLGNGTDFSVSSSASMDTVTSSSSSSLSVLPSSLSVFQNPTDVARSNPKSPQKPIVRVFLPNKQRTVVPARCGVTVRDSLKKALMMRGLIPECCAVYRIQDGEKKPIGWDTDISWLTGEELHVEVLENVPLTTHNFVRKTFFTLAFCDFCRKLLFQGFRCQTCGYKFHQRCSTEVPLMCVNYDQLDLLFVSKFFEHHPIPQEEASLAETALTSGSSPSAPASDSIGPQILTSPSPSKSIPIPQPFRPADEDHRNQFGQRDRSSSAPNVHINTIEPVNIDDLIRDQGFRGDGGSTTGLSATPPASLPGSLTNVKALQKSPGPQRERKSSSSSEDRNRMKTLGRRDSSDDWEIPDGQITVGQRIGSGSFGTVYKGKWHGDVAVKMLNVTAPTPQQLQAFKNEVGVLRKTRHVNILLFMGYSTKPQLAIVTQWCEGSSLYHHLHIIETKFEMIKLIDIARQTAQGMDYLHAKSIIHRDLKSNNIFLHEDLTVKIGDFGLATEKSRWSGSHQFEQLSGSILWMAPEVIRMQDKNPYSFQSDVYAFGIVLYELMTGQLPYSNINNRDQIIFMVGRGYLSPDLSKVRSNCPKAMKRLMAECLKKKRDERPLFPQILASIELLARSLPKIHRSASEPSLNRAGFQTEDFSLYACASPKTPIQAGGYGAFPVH

| Structure (SMILES) | IC50 |
| --- | --- |
| Cc1ccc(NC(=O)c2ccnc(C(C)(F)F)c2)cc1-c1cc(N2CCOCC2)nc(OC2CNC2)n1 [Example 779, N-(3-(2-(azetidin-3-yloxy)-6-morpholinopyrimidin-4-yl)-4-methylphenyl)-2-(1,1-difluoroethyl)isonicotinamide] | 2.2 nM |
| Cc1ccc(NC(=O)c2ccnc(C(F)(F)F)c2)cc1-c1cc(N2CCOCC2)nc(OC2CNC2)n1 [Example 780, N-(3-(2-(azetidin-3-yloxy)-6-morpholinopyrimidin-4-yl)-4-methylphenyl)-2-(trifluoromethyl)isonicotinamide] | 2.1 nM |
| Cc1ncc(NC(=O)c2cccc(C(F)(F)F)c2)cc1-c1cc(N2CCOCC2)nc(N2C(=O)OC[C@@H]2C)n1 [Example 781, (S)—N-(6-methyl-5-(2-(4-methyl-2-oxooxazolidin-3-yl)-6-morpholinopyrimidin-4-yl)pyridin-3-yl)-3-(trifluoromethyl)benzamide] | 10.8 nM |
| Cc1ccc(NC(=O)c2ccnc(C(C)(C)C#N)c2)cc1-c1cc(N2CCOCC2)nc(N2C(=O)OC[C@@H]2C)n1 [Example 782, (S)-2-(2-cyanopropan-2-yl)-N-(4-methyl-3-(2-(4-methyl-2-oxooxazolidin-3-yl)-6-morpholinopyrimidin-4-yl)phenyl)isonicotinamide] | 22.3 nM |
| Cc1ccc(NC(=O)c2cccc(C(F)(F)F)c2)cc1-c1cc(N2CCOCC2)nc(N2C(=O)OC[C@@H]2C)n1 [Example 783, (S)—N-(4-methyl-3-(2-(4-methyl-2-oxooxazolidin-3-yl)-6-morpholinopyrimidin-4-yl)phenyl)-3-(trifluoromethyl)benzamide] | 6.3 nM |
| Cc1ncc(NC(=O)c2ccnc(C(C)(C)C#N)c2)cc1-c1cc(N2CCOCC2)nc(N2C(=O)OC[C@@H]2C)n1 [Example 784, (S)-2-(2-cyanopropan-2-yl)-N-(6-methyl-5-(2-(4-methyl-2-oxooxazolidin-3-yl)-6-morpholinopyrimidin-4-yl)pyridin-3-yl)isonicotinamide] | 200 nM |
| Cc1ccc(NC(=O)c2ccnc(C(F)F)c2)cc1-c1cc(N2CCOCC2)nc(N2C(=O)OC[C@@H]2C)n1 [Example 785, (S)-2-(difluoromethyl)-N-(4-methyl-3-(2-(4-methyl-2-oxooxazolidin-3-yl)-6-morpholinopyrimidin-4-yl)phenyl)isonicotinamide] | 7.5 nM |
| Cc1ccc(NC(=O)c2ccnc(C(C)(C)C#N)c2)cc1-c1cc(N2CCOCC2)nc(NC2CNC2)n1 [Example 786, N-(3-(2-(azetidin-3-ylamino)-6-morpholinopyrimidin-4-yl)-4-methylphenyl)-2-(2-cyanopropan-2-yl)isonicotinamide] | 14.9 nM |
| Cc1ncc(NC(=O)c2cccc(C(F)(F)F)c2)cc1-c1cc(N2CCOCC2)nc(NC2CNC2)n1 [Example 787, N-(5-(2-(azetidin-3-ylamino)-6-morpholinopyrimidin-4-yl)-6-methylpyridin-3-yl)-3-(trifluoromethyl)benzamide] | 5.5 nM |
| Cc1ncc(NC(=O)c2cccc(C(F)(F)F)c2)cc1-c1cc(N2CCOCC2)nc(C(C)(C)O)n1 [Example 788, N-(5-(2-(2-hydroxypropan-2-yl)-6-morpholinopyrimidin-4-yl)-6-methylpyridin-3-yl)-3-(trifluoromethyl)benzamide] | 200 nM |

Other lines, results leading:

| IC50 | Structure (SMILES) |
| --- | --- |
| 3.5 nM | Cc1ncc(NC(=O)c2ccnc(C(C)(C)F)c2)cc1-c1cc(N2CCOCC2)n2nccc2n1 [Example 790, 2-(2-fluoropropan-2-yl)-N-(6-methyl-5-(7-morpholinopyrazolo[1,5-a]pyrimidin-5-yl)pyridin-3-yl)isonicotinamide] |
| 11.4 nM | Cc1ncc(NC(=O)c2ccnc(C(C)(C)C#N)c2)cc1-c1cc(N2CCOCC2)n2nccc2n1 [Example 791, 2-(2-cyanopropan-2-yl)-N-(6-methyl-5-(7-morpholinopyrazolo[1,5-a]pyrimidin-5-yl)pyridin-3-yl)isonicotinamide] |
| 1.7 nM | Cc1ccc(NC(=O)c2ccnc(C(C)(C)C#N)c2)cc1-c1cc(N2CCOCC2)n2nccc2n1 [Example 792, 2(2-cyanopropan-2-yl)-N-(4-methyl-3(7-morpholinopyrazolo[1,5-a]pyrimidin-5-yl)phenyl)isonicotinamide] |
| 1.3 nM | Cc1ncc(NC(=O)c2cccc(C(F)(F)F)c2)cc1-c1cc(N2CCOCC2)n2nccc2n1 [Example 793] |
| 2.6 nM | Cc1ccc(NC(=O)c2ccnc(C(C)(C)O)c2)cc1-c1cc(N2CCOCC2)n2nccc2n1 [Example 794, 2-(2-hydroxypropan-2-yl)-N-(4-methyl-3-(7-morpholinopyrazolo[1,5-a]pyrimidin-5-yl)phenyl)isonicotinamide] |
| 1.8 nM | Cc1ccc(NC(=O)c2cnnc(C(C)(C)C#N)c2)cc1-c1cc(N2CCOCC2)n2nccc2n1 [Example 795, 6-(2-cyanopropan-2-yl)-N-(4-methyl-3-(7-morpholinopyrazolo[1,5-a]pyrimidin-5-yl)phenyl)pyridazine-4-carboxamide] |
| 0.7 nM | Cc1ccc(NC(=O)c2ccnc(C3(C#N)CC3)c2)cc1-c1cc(N2CCOCC2)n2nccc2n1 [Example 796, 2-(1-cyanocyclopropyl)-N-(4-methyl-3-(7-morpholinopyrazolo[1,5-a]pyrimidin-5-yl)phenyl)isonicotinamide] |
| 24.7 nM | Cc1ncc(NC(=O)c2ccnc(C(C)(C)O)c2)cc1-c1cc(N2CCOCC2)n2nccc2n1 [Example 797, 2-(2-hydroxypropan-2-yl)-N-(6-methyl-5-(7-morpholinopyrazolo[1,5-a]pyrimidin-5-yl)pyridin-3-yl)isonicotinamide] |
| 1.1 nM | Cc1ncc(NC(=O)c2ccnc(C(F)(F)F)c2)cc1-c1cc(N2CCOCC2)n2nccc2n1 [Example 798, N-(6-methyl-5-(7-morpholinopyrazolo[1,5-a]pyrimidin-5-yl)pyridin-3-yl)-2-(trifluoromethyl)isonicotinamide] |
| 1.5 nM | Cc1ncc(NC(=O)c2ccnc(C(C)(F)F)c2)cc1-c1cc(N2CCOCC2)n2nccc2n1 [Example 799, 2-(1,1-difluoroethyl)-N-(6-methyl-5-(7-morpholinopyrazolo[1,5-a]pyrimidin-5-yl)pyridin-3-yl)isonicotinamide] |
| 2 nM | CCC(F)(F)c1cc(C(=O)Nc2cnc(C)c(-c3cc(N4CCOCC4)n4nccc4n3)c2)ccn1 [Example 800, 2-(1,1-difluoropropyl)-N-(6-methyl-5-(7-morpholinopyrazolo[1,5-a]pyrimidin-5-yl)pyridin-3-yl)isonicotinamide] |
| 3 nM | Cc1ncc(NC(=O)c2cnnc(C(F)(F)F)c2)cc1-c1cc(N2CCOCC2)n2nccc2n1 [Example 801, N-(6-methyl-5-(7-morpholinopyrazolo[1,5-a]pyrimidin-5-yl)pyridin-3-yl)-6-(trifluoromethyl)pyridazine-4-carboxamide] |
| 3.1 nM | Cc1ncc(NC(=O)c2ccnc(C3(C#N)CC3)c2)cc1-c1cc(N2CCOCC2)n2nccc2n1 [Example 802, 2-(1-cyanocyclopropyl)-N-(6-methyl-5-(7-morpholinopyrazolo[1,5-a]pyrimidin-5-yl)pyridin-3-yl)isonicotinamide] |
| 1.9 nM | Cc1ncc(NC(=O)c2ccnc(C(F)F)c2)cc1-c1cc(N2CCOCC2)n2nccc2n1 [Example 803, 2-(difluoromethyl)-N-(6-methyl-5-(7-morpholinopyrazolo[1,5-a]pyrimidin-5-yl)pyridin-3-yl)isonicotinamide] |

Reference: US9694016B2 (Novartis AG, priority 2013, dated 2017)
